According to patent publication US12202835B2, “Substituted aromatic ring-linked dioxinoquinazolines and dioxinoquinolines as kinase inhibitors” (BEIJING SCITECH-MQ PHARMACEUTICALS LIMITED, priority 2018, dated 2025):

Tests used:
c-MET kinase = c-MET kinase (Homo sapiens (Human), UniProt P08581); assay: Assay of small molecular compounds for inhibiting the activity of c-MET kinase (LANCE TR-FRET); format: biochemical; settings: read-out: CMET IC50
In short: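 Eleven final concentrations from 2500 nM down to 0.042 nM, in 4% DMSO, were tested against human c-MET (2× stock 2 nM), with compound and enzyme premixed for 5 min. The phosphorylation reaction used 4× stock of 400 nM ULight-JAK-1 peptide and 40 μM ATP for 60 min at room temperature, then stop and detection steps. TR-FRET percent inhibition against positive and negative controls gave the IC50.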

VEGFR-2 kinase = VEGFR-2 kinase (Homo sapiens (Human), UniProt P35968); assay: Assay of small molecular compounds for inhibiting the activity of VEGFR-2 kinase (LANCE TR-FRET); format: biochemical; settings: read-out: VEGFR2 IC50
VEGFR-2 kinase, sequence (P35968 20-1356): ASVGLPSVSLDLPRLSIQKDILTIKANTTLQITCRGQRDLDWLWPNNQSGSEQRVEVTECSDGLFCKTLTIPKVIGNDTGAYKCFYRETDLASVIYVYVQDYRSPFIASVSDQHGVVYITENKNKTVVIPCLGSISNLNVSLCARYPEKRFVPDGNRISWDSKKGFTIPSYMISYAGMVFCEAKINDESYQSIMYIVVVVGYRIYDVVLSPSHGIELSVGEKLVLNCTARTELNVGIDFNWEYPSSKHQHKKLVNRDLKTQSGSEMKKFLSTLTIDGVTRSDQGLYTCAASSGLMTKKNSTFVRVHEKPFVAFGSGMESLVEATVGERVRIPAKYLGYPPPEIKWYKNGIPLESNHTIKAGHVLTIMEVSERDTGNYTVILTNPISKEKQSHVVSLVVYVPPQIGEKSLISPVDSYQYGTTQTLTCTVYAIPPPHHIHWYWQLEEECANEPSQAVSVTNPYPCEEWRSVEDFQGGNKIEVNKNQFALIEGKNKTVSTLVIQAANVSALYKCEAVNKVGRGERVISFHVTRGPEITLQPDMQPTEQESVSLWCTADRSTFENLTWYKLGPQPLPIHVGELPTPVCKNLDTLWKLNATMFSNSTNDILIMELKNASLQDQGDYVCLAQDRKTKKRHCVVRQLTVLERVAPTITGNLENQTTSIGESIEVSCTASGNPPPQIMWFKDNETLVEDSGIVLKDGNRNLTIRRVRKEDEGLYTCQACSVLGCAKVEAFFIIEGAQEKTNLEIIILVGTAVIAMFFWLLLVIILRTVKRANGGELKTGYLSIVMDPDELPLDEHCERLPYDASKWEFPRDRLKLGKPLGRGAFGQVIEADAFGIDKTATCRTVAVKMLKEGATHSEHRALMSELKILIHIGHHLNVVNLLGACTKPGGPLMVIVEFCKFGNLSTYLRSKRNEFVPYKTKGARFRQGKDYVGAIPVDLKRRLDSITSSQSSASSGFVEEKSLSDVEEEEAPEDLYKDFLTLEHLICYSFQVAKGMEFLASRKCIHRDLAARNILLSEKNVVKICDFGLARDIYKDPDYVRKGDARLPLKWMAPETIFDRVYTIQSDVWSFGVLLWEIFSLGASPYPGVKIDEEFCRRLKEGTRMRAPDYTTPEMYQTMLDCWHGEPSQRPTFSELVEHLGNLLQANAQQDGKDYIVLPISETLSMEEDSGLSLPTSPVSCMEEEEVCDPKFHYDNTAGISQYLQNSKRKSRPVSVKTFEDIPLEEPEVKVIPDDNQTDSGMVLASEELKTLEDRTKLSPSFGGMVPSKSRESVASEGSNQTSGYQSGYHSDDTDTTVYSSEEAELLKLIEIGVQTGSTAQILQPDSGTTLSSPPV
In short: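 LANCE TR-FRET with human VEGFR-2 (2× stock 0.5 nM) preincubated 30 min with compound (final 2500 to 0.042 nM, 11-point 3-fold), then ULight-JAK-1 (Tyr1023) peptide/ATP added (4× stocks 200 nM/40 μM). Reaction 60 min room temperature, 4% DMSO; IC50 from inhibition-rate curve.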

c-MET kinase, sequence (P08581 25-1390): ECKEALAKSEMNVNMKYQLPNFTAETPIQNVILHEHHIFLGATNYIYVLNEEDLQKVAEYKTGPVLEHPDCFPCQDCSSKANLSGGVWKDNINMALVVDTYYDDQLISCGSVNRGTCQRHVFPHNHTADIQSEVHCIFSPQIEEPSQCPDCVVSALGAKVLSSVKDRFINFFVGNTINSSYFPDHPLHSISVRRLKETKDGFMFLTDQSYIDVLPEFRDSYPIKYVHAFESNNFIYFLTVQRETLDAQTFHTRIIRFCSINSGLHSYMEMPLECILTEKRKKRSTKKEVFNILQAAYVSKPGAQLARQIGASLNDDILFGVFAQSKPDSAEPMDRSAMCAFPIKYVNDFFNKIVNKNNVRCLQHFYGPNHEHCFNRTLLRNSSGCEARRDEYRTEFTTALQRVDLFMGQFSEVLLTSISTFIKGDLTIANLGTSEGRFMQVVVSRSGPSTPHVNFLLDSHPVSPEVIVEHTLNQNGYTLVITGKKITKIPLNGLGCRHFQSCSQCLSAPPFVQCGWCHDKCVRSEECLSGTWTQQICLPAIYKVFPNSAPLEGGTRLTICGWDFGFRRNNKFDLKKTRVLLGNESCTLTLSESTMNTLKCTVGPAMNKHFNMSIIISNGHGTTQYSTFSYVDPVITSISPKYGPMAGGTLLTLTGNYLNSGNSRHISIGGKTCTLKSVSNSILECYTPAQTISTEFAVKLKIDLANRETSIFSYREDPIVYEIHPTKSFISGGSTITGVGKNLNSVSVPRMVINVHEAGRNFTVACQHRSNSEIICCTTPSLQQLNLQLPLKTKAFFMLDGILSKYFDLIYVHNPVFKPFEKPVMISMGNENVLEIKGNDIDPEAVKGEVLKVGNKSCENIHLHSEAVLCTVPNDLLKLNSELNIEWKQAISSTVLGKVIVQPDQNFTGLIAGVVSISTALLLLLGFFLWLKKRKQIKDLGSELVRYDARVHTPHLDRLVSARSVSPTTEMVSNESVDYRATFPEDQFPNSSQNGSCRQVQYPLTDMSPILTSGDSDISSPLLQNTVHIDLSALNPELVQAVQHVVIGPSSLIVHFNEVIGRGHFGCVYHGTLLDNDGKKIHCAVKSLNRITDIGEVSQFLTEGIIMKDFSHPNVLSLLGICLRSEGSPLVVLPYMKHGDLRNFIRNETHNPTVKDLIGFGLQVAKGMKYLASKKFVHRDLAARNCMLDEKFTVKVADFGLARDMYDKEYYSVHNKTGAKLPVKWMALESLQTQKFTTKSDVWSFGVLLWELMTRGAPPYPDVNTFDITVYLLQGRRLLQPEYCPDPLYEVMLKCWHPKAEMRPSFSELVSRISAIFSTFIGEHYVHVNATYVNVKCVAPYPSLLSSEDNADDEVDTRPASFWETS

Compound	IC50 (c-MET kinase) [nM]	IC50 (VEGFR-2 kinase) [nM]
CCOc1ccn(-c2ccc(F)cc2)c(=O)c1C(=O)Nc1ccc(Oc2ccnc3cc(OCCCC#N)c4c(c23)OCCO4)c(F)c1 [Example 57, N-(4-((5-(3-cyanopropoxy)-2,3-dihydro-[1,4]dioxino[2,3-f]quinolin-10-yl)oxy)-3-fluorophenyl)-4-ethoxy-1-(4-fluorophenyl)-2-oxo-1,2-dihydropyridine-3-carboxamide]	≤ 50	≤ 50
CCOc1ccn(-c2ccc(F)cc2)c(=O)c1C(=O)Nc1ccc(Oc2ccnc3cc(OCCCN4CCN(C)CC4)c4c(c23)OCCO4)c(F)c1 [Example 49, N-(3-fluoro-4-((5-(3-(4-methylpiperazin-1-yl)propoxy)-2,3-dihydro-[1,4]dioxino[2,3-f]quinolin-10-yl)oxy)phenyl)-1-(4-fluorophenyl)-4-ethoxy-2-oxo-1,2-dihydropyridine-3-carboxamide]	≤ 50	≤ 50
CCOc1ccn(-c2ccc(F)cc2)c(=O)c1C(=O)Nc1ccc(Oc2ccnc3cc(OCCCN4CCCC4)c4c(c23)OCCO4)c(F)c1 [Example 52, N-(4-((5-(3-(pyrrolidin-1-yl)propoxy)-2,3-dihydro-[1,4]dioxino[2,3-f]quinolin-10-yl)oxy)-3-fluorophenyl)-4-ethoxy-1-(4-fluorophenyl)-2-oxo-1,2-dihydropyridine-3-carboxamide]	≤ 50	≤ 50
COCCn1cc(C(=O)Nc2ccc(Oc3ccnc4cc(OC)c5c(c34)OCCO5)c(F)c2)c(=O)n(-c2ccc(F)cc2)c1=O [Example 46, N-(3-fluoro-4-((5-methoxy-2,3-dihydro-[1,4]dioxino[2,3-f]quinolin-10-yl)oxy)phenyl)-3-(4-fluorophenyl)-1-(2-methoxyethyl)-2,4-dioxo-1,2,3,4-tetrahydropyrimidine-5-carboxamide]	≤ 50	500 to 5000
CCn1cc(C(=O)Nc2ccc(Oc3ccnc4cc(OCCOC)c5c(c34)OCCO5)c(F)c2)c(=O)n(-c2ccc(F)cc2)c1=O [Example 44, N-(3-fluoro-4-((5-(2-methoxyethoxy)-2,3-dihydro-[1,4]dioxino[2,3-f]quinolin-10-yl)oxy)phenyl)-3-(4-fluorophenyl)-1-ethyl-2,4-dioxo-1,2,3,4-tetrahydropyrimidine-5-carboxamide]	≤ 50	50 to 500
CCOc1ccn(-c2ccc(F)cc2)c(=O)c1C(=O)Nc1ccc(Oc2ccnc3cc(OCCCOC)c4c(c23)OCCO4)c(F)c1 [Example 55, N-(4-((5-(3-methoxypropoxy)-2,3-dihydro-[1,4]dioxino[2,3-f]quinolin-10-yl)oxy)-3-fluorophenyl)-4-ethoxy-1-(4-fluorophenyl)-2-oxo-1,2-dihydropyridine-3-carboxamide]	≤ 50	50 to 500
COc1cc2nccc(Oc3ccc(NC(=O)c4cn(CCO)c(=O)n(-c5ccc(F)cc5)c4=O)cc3F)c2c2c1OCCO2 [Example 45, N-(3-fluoro-4-((5-methoxy-2,3-dihydro-[1,4]dioxino[2,3-f]quinolin-10-yl)oxy)phenyl)-3-(4-fluorophenyl)-1-(2-hydroxyethyl)-2,4-dioxo-1,2,3,4-tetrahydropyrimidine-5-carboxamide]	≤ 50	500 to 5000
CCOc1ccn(-c2ccc(F)cc2)c(=O)c1C(=O)Nc1ccc(Oc2ccnc3cc(OCCO)c4c(c23)OCCO4)c(F)c1 [Example 53, N-(4-((5-(2-hydroxyethoxy)-2,3-dihydro-[1,4]dioxino[2,3-f]quinolin-10-yl)oxy)-3-fluorophenyl)-4-ethoxy-1-(4-fluorophenyl)-2-oxo-1,2-dihydropyridine-3-carboxamide]	≤ 50	≤ 50
CCOc1ccn(-c2ccc(F)cc2)c(=O)c1C(=O)Nc1ccc(Oc2ncnc3cc(OC)c4c(c23)OCCO4)c(F)c1 [Example 3, N-(3-fluoro-4-((5-methoxy-2,3-dihydro-[1,4]dioxino[2,3-f]quinazolin-10-yl)oxy)phenyl)-1-(4-fluorophenyl)-4-ethoxy-2-oxo-1,2-dihydropyridine-3-carboxamide]	≤ 50	50 to 500
CCOc1ccn(-c2ccc(F)cc2)c(=O)c1C(=O)Nc1ccc(Oc2ccnc3cc(OCCCN4CCN(C(C)=O)CC4)c4c(c23)OCCO4)c(F)c1 [Example 50, N-(4-((5-(3-(4-acetyl-piperazin-1-yl)propoxy)-2,3-dihydro-[1,4]dioxino[2,3-f]quinolin-10-yl)oxy)-3-fluorophenyl)-4-ethoxy-1-(4-fluorophenyl)-2-oxo-1,2-dihydropyridine-3-carboxamide]	≤ 50	≤ 50

Continued, values first:

IC50 (c-MET kinase) [nM]	IC50 (VEGFR-2 kinase) [nM]	Compound
≤ 50	≤ 50	CCOc1ccn(-c2ccc(F)cc2)c(=O)c1C(=O)Nc1ccc(Oc2ccnc3cc(OCC4CC4)c4c(c23)OCCO4)c(F)c1 [Example 59, N-(4-((5-(cyclopropylmethoxy)-2,3-dihydro-[1,4]dioxino[2,3-f]quinolin-10-yl)oxy)-3-fluorophenyl)-4-ethoxy-1-(4-fluorophenyl)-2-oxo-1,2-dihydropyridine-3-carboxamide]
≤ 50	≤ 50	CCOc1ccn(-c2ccc(F)cc2)c(=O)c1C(=O)Nc1ccc(Oc2ccnc3cc(OCCCN(C)CCOC)c4c(c23)OCCO4)c(F)c1 [Example 70, N-(4-((5-(3-((2-methoxyethyl)(methyl)amino)propoxy)-2,3-dihydro-[1,4]dioxino[2,3-f]quinolin-10-yl)oxy)-3-fluorophenyl)-4-ethoxy-1-(4-fluorophenyl)-2-oxo-1,2-dihydropyridine-3-carboxamide]
≤ 50	≤ 50	CCOc1ccn(-c2ccc(F)cc2)c(=O)c1C(=O)Nc1ccc(Oc2ccnc3cc(OCCCN4CCC(C)(C)CC4)c4c(c23)OCCO4)c(F)c1 [Example 67, N-(4-((5-(3-(4,4-dimethylpiperidin-1-yl)propoxy)-2,3-dihydro-[1,4]dioxino[2,3-f]quinolin-10-yl)oxy)-3-fluorophenyl)-4-ethoxy-1-(4-fluorophenyl)-2-oxo-1,2-dihydropyridine-3-carboxamide]
≤ 50	≤ 50	CCOc1ccn(-c2ccc(F)cc2)c(=O)c1C(=O)Nc1ccc(Oc2ccnc3cc(OCCCN4CCC(C)(N)CC4)c4c(c23)OCCO4)c(F)c1 [Example 68, N-(4-((5-(3-(4-amino-4-methylpiperidin-1-yl)propoxy)-2,3-dihydro-[1,4]dioxino[2,3-f]quinolin-10-yl)oxy)-3-fluorophenyl)-4-ethoxy-1-(4-fluorophenyl)-2-oxo-1,2-dihydropyridine-3-carboxamide]
≤ 50	50 to 500	CC(C)n1cc(C(=O)Nc2ccc(Oc3ccnc4cc(OCCCN5CCC(C)(N)CC5)c5c(c34)OCCO5)c(F)c2)c(=O)n(-c2ccc(F)cc2)c1=O [Example 93, N-(3-fluoro-4-((5-(3-(4-amino-4-methylpiperidin-1-yl)propoxy)-2,3-dihydro-[1,4]dioxino[2,3-f]quinolin-10-yl)oxy)phenyl)-3-(4-fluorophenyl)-1-isopropyl-2,4-dioxo-1,2,3,4-tetrahydropyrimidine-5-carboxamide]
≤ 50	≤ 50	CN1CCN(CCCOc2cc3nccc(Oc4ccc(NC(=O)c5cn(C)c(=O)n(-c6ccc(F)cc6)c5=O)cc4F)c3c3c2OCCO3)CC1 [Example 74, N-(3-fluoro-4-((5-(3-(4-methylpiperazin-1-yl)propoxy)-2,3-dihydro-[1,4]dioxino[2,3-f]quinolin-10-yl)oxy)phenyl)-3-(4-fluorophenyl)-1-methyl-2,4-dioxo-1,2,3,4-tetrahydropyrimidine-5-carboxamide]
≤ 50	50 to 500	Cn1cc(C(=O)Nc2ccc(Oc3ccnc4cc(OC5CCOC5)c5c(c34)OCCO5)c(F)c2)c(=O)n(-c2ccc(F)cc2)c1=O (stereo not shown) [Example 90, N-(3-fluoro-4-((5-((tetrahydrofuran-3-yl)oxy)-2,3-dihydro-[1,4]dioxino[2,3-f]quinolin-10-yl)oxy)phenyl)-3-(4-fluorophenyl)-1-methyl-2,4-dioxo-1,2,3,4-tetrahydropyrimidine-5-carboxamide]
50 to 500	500 to 5000	CC(C)n1cc(C(=O)Nc2ccc(Oc3ccnc4cc(OCCCN5CCS(=O)(=O)CC5)c5c(c34)OCCO5)c(F)c2)c(=O)n(-c2ccc(F)cc2)c1=O [Example 76, N-(3-fluoro-4-((5-(3-(1,1-dioxidothiomorpholino)propoxy)-2,3-dihydro-[1,4]dioxino[2,3-f]quinolin-10-yl)oxy)phenyl)-3-(4-fluorophenyl)-1-isopropyl-2,4-dioxo-1,2,3,4-tetrahydropyrimidine-5-carboxamide]
≤ 50	500 to 5000	CC(C)Oc1cc2nccc(Oc3ccc(NC(=O)c4cn(C)c(=O)n(-c5ccc(F)cc5)c4=O)cc3F)c2c2c1OCCO2 [Example 88, N-(3-fluoro-4-((5-isopropoxy-2,3-dihydro-[1,4]dioxino[2,3-f]quinolin-10-yl)oxy)phenyl)-3-(4-fluorophenyl)-1-methyl-2,4-dioxo-1,2,3,4-tetrahydropyrimidine-5-carboxamide]
≤ 50	500 to 5000	CC(C)n1cc(C(=O)Nc2ccc(Oc3ccnc4cc(OCCO)c5c(c34)OCCO5)c(F)c2)c(=O)n(-c2ccc(F)cc2)c1=O [Example 78, N-(3-fluoro-4-((5-(2-hydroxyethoxy)-2,3-dihydro-[1,4]dioxino[2,3-f]quinolin-10-yl)oxy)phenyl)-3-(4-fluorophenyl)-1-isopropyl-2,4-dioxo-1,2,3,4-tetrahydropyrimidine-5-carboxamide]
